Each compound was assayed on major urinary protein (MUP) (assay: QCM ligand-binding test: shift of resonant frequency on binding of evaporated ligand to immobilized MUP). Conditions: MUP immobilized on 10 MHz AT-cut QCM chip; odorant sample evaporated at 50° C. and pumped into detection chamber.
Parameters: species or system mouse
Method: The preferred electronic nose technology of the present invention is piezoelectric-based. Measurements are performed by detecting the binding of analytes (ligands) onto the sensing elements immobilized on piezoelectric materials, e.g., quartz crystal. The adsorption of ligand induces a shift in the oscillation frequency proportional to the mass of the encountered ligand. The operating performance of the present invention is described as bellow:
Gold electrodes of quartz crystal microbalance (QCM) surface are cleaned by immersing in 1.2 N NaOH and then in 1.2 N HCl. After rinsing and drying, the QCM electrodes are soaked in 1 mM 2-aminoethanethiol/DMSO solution for 12 hours and washed by double distilled water for 10 min. Then the QCM electrodes are dried in oven and dripped with 4 μl of 2.5% glutaldehyde for 1 hour. Two μl of 1% polyethylenimine/methanol (PEI/MeOH) solution are added onto activated surface of QCM in a closed chamber at room temperature for 12 hours. Finally, the QCM chips are washed two times and dried in oven.
Activated QCM chips are dipped in 2.5% glutaldehyde solution for 1 hour, and then MUP solution (20 μg/ml in 10 mM phosphate buffer, pH 7.4) are added and kept for 1 hour. Blocking the activated surface of QCM chips is performed by 100 mM glycine.
A sample is respectively applied in a syringe and kept in an oven at 50° C. An AT-cut QCM device with basic resonant frequency of 10 MHz is employed to determine the adsorption of odorant vapor. The evaporated odorant sample is pumped into the detection chamber of QCM and the shift of resonant frequency is recorded.
A variety of ligands are surveyed according to the above procedures. Table I lists the changes of signal in frequency upon the bindings of different ligands, including phenylacetate, propylbutyrate, hexylbutyrate, benzylbutyrate, propyltiglate, hexyltiglate, and benzyltiglate.

Compared with `C/C=C(\C)C(=O)OCCC` [propyltiglate], `C/C=C(\C)C(=O)OCCCCCC` [hexyltiglate] is higher in “Change of Signal (in frequency f)” value: 29 for the first, 55 for the second.

`C/C=C(\C)C(=O)OCc1ccccc1` [benzyltiglate] and `CCCC(=O)OCc1ccccc1` [benzylbutyrate] are the same in “Change of Signal (in frequency f)” value: 43 for the first, 43 for the second.

Compared with `CCCCCCOC(=O)CCC` [hexylbutyrate], `CCCOC(=O)CCC` [propylbutyrate] is higher in “Change of Signal (in frequency f)” value: 23 for the first, 26 for the second.
